Experimental data reported in patent US8853406B2, “Substituted phenylenediamines as inhibitors of the interaction between MDM2 and P53” (Janssen Pharmaceutica NV, priority 2007, dated 2014).

Tests used:
Type in all cases: physicochemical
[1] = Crystallographic stability of Form I (TGA, DSC, XRPD, IR after storage); parameters: key to XRD / IR: ~Ref: identical with reference; Cryst.: crystalline
Experimental: The crystallographic stability of Form I of compound No. 1 was studied according to the following procedure:
after storage of the compound in open conditions for a period of six weeks at room temperature (RT) under <5%, 56% and 75% relative humidity (RH), 50° C. and 40° C./75% RH., the samples were analyzed with thermogravimetry (TGA), differential scanning calorimetry (DSC), X-ray powder diffraction (XRPD) and infrared spectroscopy (IR).

[2] = Chemical stability of Form I (HPLC and visual inspection after storage)
Experimental: The chemical stability of Form I of compound No. 1 was studied according to the following procedure:
Form I was stored in different open conditions for periods of 1, 4 and 8 weeks. These conditions are 40° C./75% RH, 50° C., RT/<5% RH, RT/56% RH, RT/75% RH and 0.3 da ICH light.
The compounds were analyzed after storage by HPLC and by visual inspection.

[3] = Slurry conversion experiment; conditions: various solvents, 50° C., 24 hours
Experimental: Concentrated/saturated solutions of compound No. 1 drug substance were prepared at 50° C. in 13 different solvents (water, methanol, ethanol, 2-propanol, acetone, acetonitrile, toluene, tetrahydrofuran, dichloromethane, 2-butanone, ethyl acetate, dimethylformamide, 1-methoxy-2-propanol) to support the automated polymorph screen. […] The slurry solids were retrieved from their solvent systems, dried under an air stream, placed under vacuum at room temperature overnight, and then analyzed for slurry conversion using XRD.

[4] = Physical properties of the solid state forms
Experimental: Form I was denoted as a crystalline, non-hygroscopic solid that melts at approximately 192° C. Form II was described as a crystalline solid with a melting point at approximately 186° C.

In the case of Cc1cc(Nc2ccnc3c2CCC3O)ccc1NCCc1c[nH]c2c(C)cccc12 (centres unmarked) [Form I], the App ([1]; 0 days) is reported as “brown-grey”, the “DSC Max” value ([1]; 0 days) is reported as 192.1 °C and the “DSC ΔH” value ([1]; 0 days) is reported as 122 J/g. The IR ([1]; 0 days) was “Cryst., Ref”, the TGA <175° C. ([1]; 0 days) was 0.05% and the TGA <225° C. ([1]; 0 days) was 0.19%. For the same compound, the XRD ([1]; 0 days) was “Cryst., Ref”, the crystallographic stability ([1]; open storage six weeks, all conditions) was “crystallographically stable” and the App ([1]; six weeks open, 40° C./75% RH) was “brown-grey”. The “DSC Max” value ([1]; six weeks open, 40° C./75% RH) was 191.7 °C, the “DSC ΔH” value ([1]; six weeks open, 40° C./75% RH) was 123 J/g and the IR ([1]; six weeks open, 40° C./75% RH) was “~Ref”. For the same compound, the TGA <175° C. ([1]; six weeks open, 40° C./75% RH) was 0.06%, the TGA <225° C. ([1]; six weeks open, 40° C./75% RH) was 0.19% and the XRD ([1]; six weeks open, 40° C./75% RH) was “~Ref”. For the same compound, the App ([1]; six weeks open, 50° C.) was “brown-grey”, the “DSC Max” value ([1]; six weeks open, 50° C.) was 191.6 °C and the “DSC ΔH” value ([1]; six weeks open, 50° C.) was 122 J/g. For the same compound, the IR ([1]; six weeks open, 50° C.) was “~Ref”, the TGA <175° C. ([1]; six weeks open, 50° C.) was 0% and the TGA <225° C. ([1]; six weeks open, 50° C.) was 0.2%. The XRD ([1]; six weeks open, 50° C.) was “~Ref”, the App ([1]; six weeks open, RT/56% RH) was “brown-grey” and the “DSC Max” value ([1]; six weeks open, RT/56% RH) was 191.8 °C. The “DSC ΔH” value ([1]; six weeks open, RT/56% RH) was 108 J/g, the IR ([1]; six weeks open, RT/56% RH) was “~Ref” and the TGA <175° C. ([1]; six weeks open, RT/56% RH) was 0.15%. For the same compound, the TGA <225° C. ([1]; six weeks open, RT/56% RH) was 0.2%, the XRD ([1]; six weeks open, RT/56% RH) was “~Ref” and the App ([1]; six weeks open, RT/75 % RH) was “brown-grey”. For the same compound, the “DSC Max” value ([1]; six weeks open, RT/75 % RH) was 191.7 °C, the “DSC ΔH” value ([1]; six weeks open, RT/75 % RH) was 112 J/g and the IR ([1]; six weeks open, RT/75 % RH) was “~Ref”. The TGA <175° C. ([1]; six weeks open, RT/75 % RH) was 0.14%, the TGA <225° C. ([1]; six weeks open, RT/75 % RH) was 0.25% and the XRD ([1]; six weeks open, RT/75 % RH) was “~Ref”. The App ([1]; six weeks open, RT/<5% RH) was “brown-grey”, the “DSC Max” value ([1]; six weeks open, RT/<5% RH) was 191.7 °C and the “DSC ΔH” value ([1]; six weeks open, RT/<5% RH) was 125 J/g. For the same compound, the IR ([1]; six weeks open, RT/<5% RH) was “~Ref”, the TGA <175° C. ([1]; six weeks open, RT/<5% RH) was 0% and the TGA <225° C. ([1]; six weeks open, RT/<5% RH) was 0.31%. The XRD ([1]; six weeks open, RT/<5% RH) was “~Ref”, the Appearance ([2]; 0.3da ICH light (1 week)) was “brown-grey” and the HPLC Sum of impurities ([2]; 0.3da ICH light (1 week)) was 0.18%. For the same compound, the Appearance ([2]; 40° C./75% RH, 1 week) was “brown-grey”, the HPLC Sum of impurities ([2]; 40° C./75% RH, 1 week) was 0.13% and the Appearance ([2]; 40° C./75% RH, 4 weeks) was “brown-grey”. The HPLC Sum of impurities ([2]; 40° C./75% RH, 4 weeks) was 0.14%, the Appearance ([2]; 40° C./75% RH, 8 weeks) was “brown-grey” and the HPLC Sum of impurities ([2]; 40° C./75% RH, 8 weeks) was 0.2%. For the same compound, the Appearance ([2]; 50° C., 1 week) was “brown-grey”, the HPLC Sum of impurities ([2]; 50° C., 1 week) was 0.28% and the Appearance ([2]; 50° C., 4 weeks) was “brown-grey”. For the same compound, the HPLC Sum of impurities ([2]; 50° C., 4 weeks) was 0.14%, the Appearance ([2]; 50° C., 8 weeks) was “brown-grey” and the HPLC Sum of impurities ([2]; 50° C., 8 weeks) was 0.24%. The Appearance ([2]; RT/56% RH, 4 weeks) was “brown-grey”, the HPLC Sum of impurities ([2]; RT/56% RH, 4 weeks) was 0.22% and the Appearance ([2]; RT/56% RH, 8 weeks) was “brown-grey”. The HPLC Sum of impurities ([2]; RT/56% RH, 8 weeks) was 0.24%, the Appearance ([2]; RT/75% RH, 4 weeks) was “brown-grey” and the HPLC Sum of impurities ([2]; RT/75% RH, 4 weeks) was 0.2%. For the same compound, the Appearance ([2]; RT/75% RH, 8 weeks) was “brown-grey”, the HPLC Sum of impurities ([2]; RT/75% RH, 8 weeks) was 0.18% and the Appearance ([2]; RT/<5% RH, 4 weeks) was “brown-grey”. The HPLC Sum of impurities ([2]; RT/<5% RH, 4 weeks) was 0.19%, the Appearance ([2]; RT/<5% RH, 8 weeks) was “brown-grey” and the HPLC Sum of impurities ([2]; RT/<5% RH, 8 weeks) was 0.24%. For the same compound, the Appearance ([2]; Reference (1 week)) was “brown-grey”, the HPLC Sum of impurities ([2]; Reference (1 week)) was 0.23% and the chemical stability ([2]; open storage 1, 4 and 8 weeks, all investigated conditions) was “chemically stable in all investigated conditions”. For the same compound, the “form conversion when slurried” value [3] was “No form conversion was observed” and the hygroscopicity [4] was “non-hygroscopic”.
